Measured values as given in US20030113940A1, “Antibodies specific for nanotubes and related methods and compositions” (priority 2001, published 2003).
Where two headings read alike, the source gives them in different places.

Assays:
human keratinocytes = details: after 6 hours; 32,000 dpm, 1.3 μM; cited from earlier work
[1] = test system: human keratinocytes and fibroblasts; details: C60 suspension; cited from earlier work
Air sensitivity = type: physicochemical
From the text: While previous work reported in the literature performed HPLC under aerobic conditions, (see for example Funasaka et al. 1995) these studies determined that anaerobic controls better preserved the fraction of Gd@C82 in solution. […] The fraction containing the Gd@C82 was identified using MS. The solubility of fullerenes in o-xylene is about three times that of toluene and this greatly increases the ratio of fullerenes in solution to those retained on the stationary phase. Therefore, the capacity or amount of fullerenes purified per injection was very large. Each injection contained 2 ml of saturated fullerene o-xylene solution (about 30 mg of fullerenes).

[2] = test system: anti-fullerene antibodies (immune serum); test: Specificity of the immune response by double diffusion in agar; type: binding, mouse
Protocol: (§1) Specificity of the response was determined by two procedures: double diffusion in agar (22) and competitive inhibition, as determined by ELISA using RSA and BSA conjugates of the fullerenes, as well as the oligo lysine derivatives. The fullerenes themselves were not soluble enough in aqueous solutions.
Specificity of the immune response first was determined by double diffusion in agar.
Confluent lines of precipitation were seen associated with wells 1-5 with a spur between wells 2 and 3, pointing toward 3, i.e., toward 1-BSA. This finding is evidence of a population of antibodies reactive with both 1 and 2, with an additional population specific for the carrier protein of the immunogen, 1-TG. The identity of precipitation with 1 and 2 is evidence for the lack of participation of the linker group, which is missing from 2. […] Anti-TG also could be detected by ELISA (below).

[3] = test system: anti-fullerene antibodies binding to 1-RSA; test: ELISA inhibition of antibody binding to 1-RSA; design: species or system mouse
Protocol: After a total of three immunizations at 3-week intervals, confirmation of an immune response was determined by direct ELISA in which polystyrene plates (Corning) were coated with the 1-RSA conjugate (0.5 mg/ml in 0.1 M NaHCO3, pH 9), and binding of preimmune and immune sera were determined by standard procedures. Development was with horseradish peroxidase-labeled goat anti-mouse IgG (Sigma), which tested negative for crossreaction with an IgM preparation. The substrate used was o-phenylenediamine.
as §1
The adenosine conjugate had been synthesized using the same strategy used for the fullerenes, i.e., linkage to the epsilon amino groups of the lysines via an N-hydroxysuccinimide ester derivative.
Specificity also was determined by ELISA inhibition studies (FIG. 6). Binding to 1-RSA was inhibited by 1-RSA, 1-BSA, 1-TG, 3-pentalysine, 2-pentalysine, and 1-pentalysine. Inhibition by 2-pentalysine is additional evidence for nonparticipation of the linker group, i.e., specificity for the C60 moiety. […]

[4] = Atomic force microscopy of antibody binding to SWNT
Protocol: C60 Antibodies on SWNTs were directly imaged by atomic force microscopy. SWNT ropes on mica were initially imaged, the surface was then exposed to antibody solution, and finally; the same SWNT was imaged again in air. This sequence distinguishes any preexisting surface particles from bound antibodies. Three drops of aqueous SWNT suspension (0.064 mg/mL in Triton 100×surfactant, from Tubes@Rice) were spun onto a freshly cleaved mica surface. One drop of fullerene-specific antibody(0.00125 mg/mL in 10 mM phosphate buffer, 150 mM NaCl, pH 7.3) was then deposited onto the surface. Liquid was removed by glass piper after 8 min, and the sample was dried in air. The sample was then washed with 60 drops of water while spinning to remove weakly bound, physisorbed antibody layers. The same SWNT was then imaged in FIG. 24. A significant number of objects are adsorbed on the nanotube, in previously clean regions, and on the mica substrate. […] The mica antibody images are similar in height, width, and dimpled appearance to those previously reported for monoclonal mouse IgG1 on mica (10).
In a separate experiment, we mixed an aqueous SWNT suspension with an anti-fullerene antibody solution and then imaged the SWNTs on mica. One drop of antibody solution (0.25 mg/mL) was mixed with 5 mL of SWNT suspension (0.064 mg/ml) and cooled at 5° C. for 2 h. Three drops of this mixture were spun on a freshly cleaved […] and imaged without washing.

In the case of `c12c3c4c5c1c1c6c7c2c2c8c3c3c9c4c4c%10c5c5c1c1c6c6c%11c7c2c2c7c8c3c3c8c9c4c4c9c%10c5c5c1c1c6c6c%11c2c2c7c3c3c8c4c4c9c5c1c1c6c2c3c41` [Compound C60, fullerene-C60], the “applied radioactivity taken up by the keratinocytes” value (human keratinocytes) is given as “approximately 50%” and the “effect on the rate of thymidine uptake” value [1] is given as “no effect”.

For Gd@C82(OH)x, the air sensitivity (Air sensitivity) was “does not appear to be air sensitive”.

For bovine thyroglobulin [TG], the “precipitation in double diffusion in agar” value ([2]; TG solution diluted 5-fold) was “line of precipitation was seen”, the “precipitation in double diffusion in agar” value ([2]; undiluted antigen solutions) was “no visible precipitate” and the “inhibition of binding to 1-RSA (ELISA)” value [3] was “No inhibition”.

For rabbit serum albumin [RSA], the “inhibition of binding to 1-RSA (ELISA)” value [3] was “No inhibition”.

B1: fullerene-specific antibody: monoclonal antibody produced by hybridoma 1-10F-8A (ATCC PTA-279) (antibody, V domains shown)
VH: MGCSWGMLFLLSITAGVHCQVHLQQSGPELVRPGASVKISCKTSGYVFSSSWMNWVKQRPGQGLKWIGRIYPGNGNTNYNEKFKGKATLTADKSSNTAYMQLSSLTSVDSAVYFCATSSAYWGQGTLLTVSA
VL: DIQMTQTTSSLSASLGDRVTFSCSASQDINNYLNWYQQKPDGTIKLLIYYTSSLRSGVPSRFSGSGSGTDYSLTINNLEPEDIATYFCQQYSRLPFTFGSGTKLEIKRK
modifications: Mouse [murine]; Mouse
For B1, the “binding of antibody to SWNT (AFM image)” value [4] was “antibodies on the nanotube and on mica”, the “binding of antibody to SWNT (AFM image)” value ([4]; listed as anti-fullerene/anti-nanotube antibody) was “bound to a nanotube” and the “binding of antibody to SWNT (AFM image)” value ([4]; listed as monoclonal IgG C60-specific antibody) was “specifically binds”.
